How the values were obtained:
pUC19 plasmid = test system: pUC19 plasmid; set-up: method as in PMID 34115482; conditions: cited from earlier work
[1] = HPLC-MS stability measurements in PBS; conditions: PBS pH 7.4, 20 °C, 40 µM
Protocol: 4 µL of stock solution was mixed with 990 µL of PBS buffer (pH 7.4) and 6 µL DMSO to obtain a final concentration of 40 µM. After injection, the chromatogram at 225 nm and the corresponding mass spectra (positive mode) were recorded hourly (4 h) and after 24 h at 20 °C. Peak areas were determined by integrating complex signals of the respective chromatogram. The measurements were performed with an HPLC system (Agilent Technologies, […]) equipped with a C18 column (Waters, Atlantis T3 […], 1.0 × 150 mm^2) coupled to an MS (Bruker, amaZon SL, ESI, positive mode) with a flow rate of 0.2 mL/min at 20 °C and a gradient (5–95%) with Milli-Q water/ACN.

CH1/PA-1 cells = experiment: DCFH-DA assay (ROS levels); type: cell-based, human; conditions: CH1/PA-1, DCFH-DA, up to 2 h

SMILES | Influence on pUC19 (in words) (pUC19 plasmid) | Percentage amount of initial complex remaining ([1]; after 24 h) | ROS level, T/C (treated vs negative control) (CH1/PA-1 cells) | Percentage amount of initial complex remaining ([1]; after 4 h)
CC1=C([O-])C([O-])(n2cccn2)c2ccccc2C1=O.Cc1ccc(C(C)C)cc1.[Ru+2] (racemic) [Compound 1] | only a minor influence on pUC19 | more than 70% | ≈ 0.5 | 
CC1=C([O-])C([O-])(n2cccn2)c2ccccc2C1=O.Cc1c(C)c(C)c(C)c(C)c1C.[Ru+2] (centres unmarked) [Compound 6] |  |  |  | less than 70%
CC1=C(O)C(=O)c2ccccc2C1=O [L, 2-Hydroxy-3-methyl-1,4-naphthoquinone] | only a minor influence on pUC19 |  |  | 
